Experimental data from US20230322815A1, “NOVEL COMPOUNDS AND THERAPEUTIC USES THEREOF” (University of Huddersfield, priority 2020, published 2023).

Key:
AMPK = experiment: Cell-free kinase screen; format: biochemical, human; conditions: 10 μM complex
Procedure: (§1) FIG. 9. Effects of [L2Zn3]^6+ and [L2Cu3]^6+ on the activity of purified human kinases. a,b, Percentage inhibition of the indicated kinases by [L2Zn3]^6+ (a) and [L2Cu3]^6+ (b) respectively at a concentration of 10 μM; full results are presented in the ESI. c,d, Kinases whose activity is stimulated by [L2Zn3]^6+ (c) or [L2Cu3]^6+ (d) complexes. e,f, Kinome map showing kinases inhibited (red) or stimulated (green) by [L2Zn3]^6+ (e) or [L2Cu3]^6+ (f). III ustration reproduced courtesy of Cell Signalling Technology Inc (www.cellsignal.com)
(§2) FIG. 16. The effect of [L2Zn3]^6+ and [L2Cu3]^6+ on the activity of recombinant human kinases. The compounds were submitted to the MRC Protein Phosphorylation and Ubiquitination Unit International Centre for Kinase Profiling (University of Dundee) and tested at a concentration of 10 μM against 140 human kinases (Premier Screen).
(§3) Given the ability of the Zn^2+ complex to dephosphorylate amino acids serine, tyrosine and threonine (FIG. 6) and the Cu^2+ complex to bind phenyl phosphate (FIG. 3), it was examined whether the complexes affect the activity of kinases. This was assessed in a cell-free screen of 140 kinases using purified recombinant human kinases and substrate peptides incubated in the presence of ^33P ATP and 10 μM complex or solvent control. […]

Src = Src (Homo sapiens, UniProt P12931); experiment: Cell-free kinase screen; format: biochemical; conditions: 10 μM complex
Procedure: as §1, §2, §3

[1] = Dephosphorylation of purified phosphorylated AMPK peptide
Procedure: Unless otherwise stated, all solvents and materials were purchased from either Sigma Aldrich, Fisher Scientific or Fluorochem and were used without further purification. ^1H, ^13C, DEPT-135 and DEPT-90 NMR data was recorded on either a Bruker Fourier 300 MHz or Bruker Avance III (AVIII) 400 MHz spectrometer or a Bruker Avance Neo 600 MHz NMR spectrometer. Mass spectra were obtained on an Agilent 6210 TOF MS with electrospray ionisation operating in positive ion mode and mass spectra of metal complexes were obtained on a Bruker Micro TOF-q LC mass spectrometer with electrospray ionisation operating in positive ion mode. Phosphorylated ‘SAMS’ peptide HMRSAMS*GLHLVKRR (phosphorylated on the serine residue) was obtained from PeptideSynthetics, Peptide Protein Research Ltd (>95% purity).
There are several potential mechanisms which could lead the observed kinase inhibition ‘readout’ of this screen including, i) direct ATP hydrolysis by the complex(es) and differing Km of the kinases for ATP, and, ii) dephosphorylation of the peptide substrate by the phosphatase activity of the Zn^2+ complex resulting in cycles of peptide phosphorylation by active recombinant enzyme and dephosphorylation by the complex.

[2] = system: recombinant AMPK (AMPKα p-T172); experiment: Western blot of purified recombinant kinase after exposure to complex; format: biochemical, human; conditions: 50 μM complex, 4 hours, in the presence of ATP
Procedure: (§4) FIG. 10. Western blot analysis of purified recombinant Src and AMPK following exposure to [L2Zn3]^6+ and [L2Cu3]^6+. Purified enzymes were incubated with complexes (50 μM) for 4 hours in the presence of ATP prior to analysis.
Protein lysates and recombinant proteins were resolved on 15% SDS polyacrylamide gels. Proteins were electroblotted onto nitrocellulose membrane by wet transfer in 1×Tris Glycine buffer (Biorad) at 35 mA overnight at room temperature (Allison et al., 2014). After blocking of membranes, these were incubated with primary antibody overnight at 4° C. before addition of rabbit or mouse secondary antibody (HRP-conjugated) for 1 h at room temperature and development of blots by enhanced chemiluminescence. […] Quantification of signals was performed by densitometry using Image J software.
To investigate these hypotheses further, regulatory phospho-amino acids of two key kinases identified by the kinase screen, AMPK and Src, were analysed following incubation of the recombinant kinases with Zn^2+ or Cu^2+ complexes.

[3] = biological target: recombinant Src (p-Y527, p-Y416) (Homo sapiens, UniProt P12931); experiment: as above; format: biochemical; conditions: 50 μM complex, 4 hours, in the presence of ATP
Procedure: as §4
(§5) Protein lysates and recombinant proteins were resolved on 15% SDS polyacrylamide gels. Proteins were electroblotted onto nitrocellulose membrane by wet transfer in 1×Tris Glycine buffer (Biorad) at 35 mA overnight at room temperature (Allison et al., 2014). After blocking of membranes, these were incubated with primary antibody overnight at 4° C. before addition of rabbit or mouse secondary antibody (HRP-conjugated) for 1 h at room temperature and development of blots by enhanced chemiluminescence. Primary antibodies were: anti-Src (total) (Cell Signalling Technology #2123 1:1000), anti-phosphorylated Src (Y527) (Cell Signalling Technology #21055 1:1000), anti-phosphorylated Src (Y416) (Cell Signalling Technology #69435 1:1000), anti-AMPKα (total) (Cell Signalling Technology #2532 1:1000), anti-phosphorylated AMPKα (T172) (Cell Signalling Technology […] 1:1000), anti-phospho-Tyr (pan) (Cell Signalling Technology #8954 1:2000), anti-p53 (Santa Cruz, DO-1 clone, 1:1000), anti-β-actin (Merck MAB1501, 1:40,000). Quantification of signals was performed by densitometry using Image J software.
For Src, effects of the complexes on two key regulatory phospho-amino acids were examined, Y527 and Y416 (FIG. 10). […] The decrease in p-Y527 is consistent with the selective phosphatase activity of [L2Zn3]^6+.

ARPE19 non-cancer cells = experiment: Immunoblot of cellular proteins after treatment; format: cell-based, human; conditions: 5 μM, 40 h
Procedure: (§6) FIG. 12. Immunoblots showing the differential effects of [L2Cu3]^6+ and [L2Zn3]^6+ treatment of HCT116 cancer cells and ARPE19 non-cancer cells on key cellular proteins associated with cellular and metabolic stress. Representative immunoblot images of the indicated proteins following cell exposure to 5 μM [L2Cu3]^6+ or [L2Zn3]^6+ for 40 h. Tyrosine phosphorylated proteins are indicated using a pan-phospho-Tyr antibody; β-actin as a loading control.
as §5

HCT116 cancer cells = experiment: Immunoblot of cellular proteins after treatment; format: cell-based, human; conditions: 5 μM, 40 h
Procedure: as §6, §5

Sequence of recombinant Src (p-Y527, p-Y416) (P12931 whole entry): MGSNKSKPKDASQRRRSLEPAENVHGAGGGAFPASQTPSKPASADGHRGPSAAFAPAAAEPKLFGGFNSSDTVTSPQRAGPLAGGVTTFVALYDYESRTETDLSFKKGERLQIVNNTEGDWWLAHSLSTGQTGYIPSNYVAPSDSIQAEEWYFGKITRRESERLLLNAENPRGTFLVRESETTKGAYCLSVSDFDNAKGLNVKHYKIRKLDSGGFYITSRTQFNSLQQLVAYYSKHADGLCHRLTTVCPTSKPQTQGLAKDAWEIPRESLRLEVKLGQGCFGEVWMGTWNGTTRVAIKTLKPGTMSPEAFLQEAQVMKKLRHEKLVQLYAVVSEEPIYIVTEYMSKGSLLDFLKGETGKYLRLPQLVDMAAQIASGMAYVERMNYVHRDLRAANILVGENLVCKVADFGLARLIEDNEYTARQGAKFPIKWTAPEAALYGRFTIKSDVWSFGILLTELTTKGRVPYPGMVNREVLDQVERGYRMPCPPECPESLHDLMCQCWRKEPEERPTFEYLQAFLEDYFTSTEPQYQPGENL
Sequence of Src (P12931 whole entry): as above

## [Cu+2].[Cu+2].[Cu+2].c1ccc(-c2csc(NCCN(CCNc3nc(-c4ccccn4)cs3)CCNc3nc(-c4ccccn4)cs3)n2)nc1.c1ccc(-c2csc(NCCN(CCNc3nc(-c4ccccn4)cs3)CCNc3nc(-c4ccccn4)cs3)n2)nc1 [[L2Cu3]^6+]
AMPK
  effect on AMPK activity in the kinase screen: inhibition of AMPK
Src
  effect on Src kinase activity in the kinase screen: activity was increased
[1]
  dephosphorylation of phosphorylated AMPK peptide: neither complex resulted in dephosphorylation
[2]
  AMPKα p-T172 levels by immunoblotting: significantly reduced p-T172 levels
[3]
  detection of p-Y416: could not be detected
ARPE19 non-cancer cells
  p53 levels: decreased
HCT116 cancer cells
  increase in p53 levels: ~1.7 fold

## [Zn+2].[Zn+2].[Zn+2].c1ccc(-c2csc(NCCN(CCNc3nc(-c4ccccn4)cs3)CCNc3nc(-c4ccccn4)cs3)n2)nc1.c1ccc(-c2csc(NCCN(CCNc3nc(-c4ccccn4)cs3)CCNc3nc(-c4ccccn4)cs3)n2)nc1 [[L2Zn3]^6+]
AMPK
  effect on AMPK activity in the kinase screen: inhibition of AMPK
Src
  effect on Src kinase activity in the kinase screen: activity was increased
[1]
  dephosphorylation of phosphorylated AMPK peptide: neither complex resulted in dephosphorylation
[2]
  AMPKα p-T172 levels by immunoblotting: significantly reduced p-T172 levels
[3]
  decrease in p-Y527 relative to total Src levels: ~30%
  increase in p-Y416 levels: ~5 fold
ARPE19 non-cancer cells
  p53 levels: decreased
HCT116 cancer cells
  cellular p-T172 AMPKα relative to total AMPKα levels: increased
  increase in p53 levels: ~2.7 fold
HCT116 cancer cells; pan phospho-tyrosine antibody
  decrease in total levels of Tyr-phosphorylated proteins: ~10%
